From ChEMBL document CHEMBL1201862, “PubChem BioAssay data set” (2004)
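A five-concentration, 48-hour dose response in 96-well plates underlies each endpoint, interpolated linearly between surrounding concentrations. GI50: concentration for 50% inhibition of growth.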 Active and inactive are the calls of the source. Cut-off read from the data, not from the text of the source: active = GI50 up to about 1.1 µM and inactive = higher.

Legend:
Test in all cases: NCI anticancer screen, dose series, 48 h
HCT-116 = system: HCT-116
CAKI-1 = system: CAKI-1
UO-31 = system: UO-31
786-0 = system: 786-0
DMS-114 = system: DMS-114
SF-268 = system: SF-268
LOX IMVI = system: LOX IMVI
SK-MEL-28 = system: SK-MEL-28
DLD-1 = system: DLD-1
OVCAR-3 = system: OVCAR-3
A498 = system: A498
NCI-H23 = system: NCI-H23
SNB-75 = system: SNB-75
SN12C = system: SN12C
EKVX = system: EKVX
ACHN = system: ACHN
A549 = system: A549
OVCAR-8 = system: OVCAR-8
SF-295 = system: SF-295
Malme-3M = system: Malme-3M
RXF 393 = system: RXF 393
LXFL 529 = system: LXFL 529
SK-MEL-2 = system: SK-MEL-2
MOLT-4 = system: MOLT-4
HOP-18 = system: HOP-18
TK-10 = system: TK-10
KM12 = system: KM12
XF498 = system: XF498
HT-29 = system: HT-29
HOP-62 = system: HOP-62
M14 = system: M14
SF-539 = system: SF-539
UACC-257 = system: UACC-257
HCC 2998 = system: HCC 2998
M19-MEL = system: M19-MEL
U-251 = system: U-251
SNB-19 = system: SNB-19
SW-620 = system: SW-620
SNB-78 = system: SNB-78
OVCAR-5 = system: OVCAR-5
SK-OV-3 = system: SK-OV-3
K562 = system: K562
CCRF-CEM = system: CCRF-CEM
UACC-62 = system: UACC-62
COLO 205 = system: COLO 205
SK-MEL-5 = system: SK-MEL-5
OVCAR-4 = system: OVCAR-4
HCT-15 = system: HCT-15
KM-20L2 = system: KM-20L2
DMS-273 = system: DMS-273
IGROV-1 = system: IGROV-1
NCI-H522 = system: NCI-H522
NCI-H460 = system: NCI-H460
NCI-H226 = system: NCI-H226
SR = system: SR
HL-60 = system: HL-60
RPMI-8226 = system: RPMI-8226
HOP-92 = system: HOP-92
PC-3 = system: PC-3
BT-549 = system: BT-549
MCF7 = system: MCF7
MDA-MB-435 = system: MDA-MB-435
NCI/ADR-RES = system: NCI/ADR-RES
MDA-MB-231 = system: MDA-MB-231
Hs-578T = system: Hs-578T
T47D = system: T47D
DU-145 = system: DU-145
MDA-N = system: MDA-N

SMILES: O=S(O)CCCSSc1ccccc1
- GI50 (HCT-116): 37.7 µM (inactive)
- GI50 (CAKI-1): 27 µM (inactive)
- GI50 (UO-31): 19.8 µM (inactive)
- GI50 (786-0): 66.8 µM (inactive)
- GI50 (DMS-114): 16.8 µM (inactive)
- GI50 (SF-268): 18.7 µM (inactive)
- GI50 (LOX IMVI): 29.3 µM (inactive)
- GI50 (SK-MEL-28): 54.6 µM (inactive)
- GI50 (DLD-1): 41.9 µM (inactive)
- GI50 (OVCAR-3): 53.8 µM (inactive)
- GI50 (A498): 51.9 µM (inactive)
- GI50 (NCI-H23): 66.7 µM (inactive)
- GI50 (SNB-75): 20.8 µM (inactive)
- GI50 (SN12C): 25.6 µM (inactive)
- GI50 (EKVX): 36.1 µM (inactive)
- GI50 (ACHN): 48 µM (inactive)
- GI50 (A549): 25.5 µM (inactive)
- GI50 (OVCAR-8): 26.5 µM (inactive)
- GI50 (SF-295): 53.2 µM (inactive)
- GI50 (Malme-3M): 67 µM (inactive)
- GI50 (RXF 393): 22.9 µM (inactive)
- GI50 (LXFL 529): 32.5 µM (inactive)
- GI50 (SK-MEL-2): 74.6 µM (inactive)
- GI50 (MOLT-4): 17.5 µM (inactive)
- GI50 (HOP-18): > 100 µM (inactive)
- GI50 (TK-10): 40.1 µM (inactive)
- GI50 (KM12): 31.1 µM (inactive)
- GI50 (XF498): 98.9 µM (inactive)
- GI50 (HT-29): 46.9 µM (inactive)
- GI50 (HOP-62): 57.7 µM (inactive)
- GI50 (M14): 37.1 µM (inactive)
- GI50 (SF-539): 25.3 µM (inactive)
- GI50 (UACC-257): 40.2 µM (inactive)
- GI50 (HCC 2998): 76.9 µM (inactive)
- GI50 (M19-MEL): 39.4 µM (inactive)
- GI50 (U-251): 26.4 µM (inactive)
- GI50 (SNB-19): 96.8 µM (inactive)
- GI50 (SW-620): 47.3 µM (inactive)
- GI50 (SNB-78): 32.7 µM (inactive)
- GI50 (OVCAR-5): > 100 µM (inactive)
- GI50 (SK-OV-3): 99.3 µM (inactive)
- GI50 (K562): 38.1 µM (inactive)
- GI50 (CCRF-CEM): 7.67 µM (inactive)
- GI50 (UACC-62): 36.6 µM (inactive)
- GI50 (COLO 205): 43.4 µM (inactive)
- GI50 (SK-MEL-5): 22.5 µM (inactive)
- GI50 (OVCAR-4): 98.4 µM (inactive)
- GI50 (HCT-15): 35.5 µM
- GI50 (KM-20L2): 51.1 µM (inactive)
- GI50 (DMS-273): 30.8 µM (inactive)
- GI50 (IGROV-1): 14.7 µM (inactive)
- GI50 (NCI-H522): 18.3 µM (inactive)
- GI50 (NCI-H460): 78.3 µM (inactive)

SMILES: COc1cc(OC)cc(-c2cc(O)c3cc4c(cc3n2)OCO4)c1
- GI50 (NCI-H226): 0.251 µM (active)
- GI50 (HCT-116): 0.169 µM (active)
- GI50 (CAKI-1): 0.309 µM (active)
- GI50 (UO-31): 1.22 µM (inactive)
- GI50 (786-0): 0.348 µM (active)
- GI50 (DMS-114): 0.218 µM (active)
- GI50 (SF-268): 0.54 µM (active)
- GI50 (LOX IMVI): 0.367 µM (active)
- GI50 (SK-MEL-28): 0.194 µM (active)
- GI50 (DLD-1): 0.311 µM (active)
- GI50 (OVCAR-3): 0.136 µM (active)
- GI50 (NCI-H23): 0.351 µM (active)
- GI50 (SNB-75): 2.32 µM (inactive)
- GI50 (SN12C): 0.367 µM (active)
- GI50 (EKVX): 12.6 µM (inactive)
- GI50 (ACHN): 0.321 µM (active)
- GI50 (A549): 0.428 µM (active)
- GI50 (SR): 0.199 µM (active)
- GI50 (OVCAR-8): 0.395 µM (active)
- GI50 (SF-295): 0.2 µM (active)
- GI50 (Malme-3M): 0.426 µM (active)
- GI50 (LXFL 529): 0.211 µM (active)
- GI50 (SK-MEL-2): 0.165 µM (active)
- GI50 (MOLT-4): 0.364 µM (active)
- GI50 (HOP-18): 16.3 µM (inactive)
- GI50 (TK-10): 1.74 µM (inactive)
- GI50 (KM12): 0.17 µM (active)
- GI50 (XF498): 0.152 µM (active)
- GI50 (HT-29): 0.295 µM (active)
- GI50 (HOP-62): 0.486 µM (active)
- GI50 (M14): 0.239 µM (active)
- GI50 (SF-539): 0.173 µM (active)
- GI50 (UACC-257): 1.96 µM (inactive)
- GI50 (HCC 2998): 0.225 µM (active)
- GI50 (M19-MEL): 0.321 µM (active)
- GI50 (U-251): 0.221 µM (active)
- GI50 (SNB-19): 0.8 µM (active)
- GI50 (SW-620): 0.203 µM (active)
- GI50 (SNB-78): 0.295 µM (active)
- GI50 (HL-60): 0.162 µM (active)
- GI50 (OVCAR-5): 4.35 µM (inactive)
- GI50 (RPMI-8226): 0.389 µM (active)
- GI50 (SK-OV-3): 0.27 µM (active)
- GI50 (K562): 0.15 µM (active)
- GI50 (CCRF-CEM): 0.206 µM (active)
- GI50 (UACC-62): 0.209 µM (active)
- GI50 (COLO 205): 0.192 µM (active)
- GI50 (HOP-92): 0.314 µM (active)
- GI50 (SK-MEL-5): 0.163 µM (active)
- GI50 (OVCAR-4): 17.1 µM (inactive)
- GI50 (HCT-15): 0.263 µM
- GI50 (KM-20L2): 0.217 µM (active)
- GI50 (DMS-273): 0.306 µM (active)
- GI50 (IGROV-1): 0.389 µM (active)
- GI50 (NCI-H522): 0.139 µM (active)
- GI50 (NCI-H460): 0.26 µM (active)

SMILES: CCCC(=O)OC1C(C(O)CO)OC2OC(C)(C)OC21 (stereo not drawn)
- GI50 (NCI-H226): > 100 µM (inactive)
- GI50 (HCT-116): > 100 µM (inactive)
- GI50 (CAKI-1): > 100 µM (inactive)
- GI50 (UO-31): > 100 µM (inactive)
- GI50 (786-0): > 100 µM (inactive)
- GI50 (PC-3): > 100 µM (inactive)
- GI50 (DMS-114): > 100 µM (inactive)
- GI50 (SF-268): > 100 µM (inactive)
- GI50 (LOX IMVI): > 100 µM (inactive)
- GI50 (SK-MEL-28): > 100 µM (inactive)
- GI50 (DLD-1): > 100 µM (inactive)
- GI50 (OVCAR-3): > 100 µM (inactive)
- GI50 (A498): > 100 µM (inactive)
- GI50 (NCI-H23): > 100 µM (inactive)
- GI50 (SNB-75): > 100 µM (inactive)
- GI50 (SN12C): > 100 µM (inactive)
- GI50 (EKVX): > 100 µM (inactive)
- GI50 (ACHN): > 100 µM (inactive)
- GI50 (A549): > 100 µM (inactive)
- GI50 (SR): > 100 µM (inactive)
- GI50 (BT-549): > 100 µM (inactive)
- GI50 (OVCAR-8): > 100 µM (inactive)
- GI50 (SF-295): > 100 µM (inactive)
- GI50 (Malme-3M): > 100 µM (inactive)
- GI50 (RXF 393): > 100 µM (inactive)
- GI50 (SK-MEL-2): > 100 µM (inactive)
- GI50 (MCF7): > 100 µM (inactive)
- GI50 (MOLT-4): > 100 µM (inactive)
- GI50 (HOP-18): > 100 µM (inactive)
- GI50 (TK-10): > 100 µM (inactive)
- GI50 (MDA-MB-435): > 100 µM (inactive)
- GI50 (KM12): > 100 µM (inactive)
- GI50 (XF498): > 100 µM (inactive)
- GI50 (HT-29): > 100 µM (inactive)
- GI50 (HOP-62): > 100 µM (inactive)
- GI50 (M14): > 100 µM (inactive)
- GI50 (SF-539): > 100 µM (inactive)
- GI50 (UACC-257): > 100 µM (inactive)
- GI50 (HCC 2998): > 100 µM (inactive)
- GI50 (M19-MEL): > 100 µM (inactive)
- GI50 (U-251): > 100 µM (inactive)
- GI50 (SNB-19): > 100 µM (inactive)
- GI50 (SW-620): > 100 µM (inactive)
- GI50 (SNB-78): > 100 µM (inactive)
- GI50 (OVCAR-5): > 100 µM (inactive)
- GI50 (NCI/ADR-RES): > 100 µM (inactive)
- GI50 (RPMI-8226): > 100 µM (inactive)
- GI50 (MDA-MB-231): > 100 µM (inactive)
- GI50 (SK-OV-3): > 100 µM (inactive)
- GI50 (UACC-62): > 100 µM (inactive)
- GI50 (COLO 205): > 100 µM (inactive)
- GI50 (HOP-92): > 100 µM (inactive)
- GI50 (Hs-578T): > 100 µM (inactive)
- GI50 (SK-MEL-5): > 100 µM (inactive)
- GI50 (OVCAR-4): > 100 µM (inactive)
- GI50 (T47D): > 100 µM (inactive)
- GI50 (HCT-15): > 100 µM
- GI50 (DU-145): > 100 µM (inactive)
- GI50 (KM-20L2): > 100 µM (inactive)
- GI50 (DMS-273): > 100 µM (inactive)
- GI50 (IGROV-1): > 100 µM (inactive)
- GI50 (NCI-H522): > 100 µM (inactive)
- GI50 (MDA-N): > 100 µM (inactive)
- GI50 (NCI-H460): > 100 µM (inactive)
